From patent US5776489A, “Controlled release carbonic anhydrase inhibitor containing pharmaceutical compositions from spherical granules in capsule oral dosage unit form” (priority 1992, dated 1998)
In brackets after ≈: the same amount, converted by molar mass.

How the values were obtained:
[1] = pH 1.2
[2] = cited from earlier work

degradation in gastric fluid [1]: degradation
solubility in gastric fluid [1]: poor solubility
SMILES: CC(=O)/N=c1/sc(S(N)(=O)=O)nn1C [methazolamide]
solubility ([2]; pH 7.2 phosphate buffer): 3400 µg/mL (≈ 14.4 mM)
aqueous solubility ([2]; water, 25° C.): 1500 µg/mL (≈ 6.35 mM)
